Measurements from article PMC11431997, “Baicalin Inhibits FIPV Infection In Vitro by Modulating the PI3K-AKT Pathway and Apoptosis Pathway” (International Journal of Molecular Sciences, 2024).
In brackets after ≈: the same amount, converted by molar mass. Several values for one entry are separate records, joined by “and”; a condition that tells them apart may be missing. Equal values may be shown once.

Tests used:
FIPV (BJ-01) [1] = test: Impact of the compound on FIPV replication (compound added after infection, CCK-8); assay type: cell-based, feline infectious peritonitis virus
Method: According to previous methods, CRFK cells were seeded in 96-well cell culture plates at a density of 1 × 10^4 cells/well and cultured at 37 °C in 5% CO2 until the cell density was greater than 90%. Then, the medium was discarded, and the cells were washed twice with PBS. FIPV was first added into 96-well cell culture plates at 100 μL/well then incubated at 37 °C and 5% CO2 for 1, 2, 4, 6, 8, 10, 12, and 14 h, respectively. After that, the viral solution was discarded and washed with PBS twice and then the compound was added at 100 μL/well and incubated at 37 °C and 5% CO2 (at the same time, a cell control group with only 100 μL of MM and a viral control group with only 100 μL of FIPV were added). There were 3 replicate wells for each compound and group. After the CPE of the viral control group reached more than 80%, the liquid in the culture plate was removed and washed twice with PBS. Afterwards, the IR of the compounds against the virus was computed according to the directions of the Cell Counting Kit-8.

FIPV (BJ-01) [2] = test: Impact of the compound on FIPV adsorption (cells pre-incubated with compound, CCK-8); assay type: cell-based, feline infectious peritonitis virus; details: cells co-cultured with baicalin before FIPV, all times
Method: According to previous methods, CRFK cells were seeded in 96-well cell culture plates at a density of 1 × 10^4 cells/well and cultured at 37 °C in 5% CO2 until the cell density was greater than 90%. Then, the medium was discarded, and the cells were washed twice with PBS. The compound was first added into 96-well cell culture plates at 100 μL/well and then incubated at 37 °C and 5% CO2 for […], 1, 2, 4, and 6 h, respectively, then incubated at 4 °C for 1 h. After that, the liquid in the plates was removed and washed with PBS twice. Then, added FIPV into cells at 100 μL/well and incubated at 37 °C and 5% CO2 (at the same time, a cell control group with only 100 μL of MM and a viral control group with only 100 μL of FIPV were added). There were 3 replicate wells for each compound and group. After the CPE of the viral control group reached more than 80%, the liquid in the culture plate was removed and washed twice with PBS. Afterwards, the IR of the compounds against the virus was computed according to the directions of the Cell Counting Kit-8.

FIPV-infected CRFK cells = test: FIPV-induced apoptosis, Annexin V-FITC/PI assay; assay type: cell-based, feline; details: baicalin-treated FIPV-infected CRFK cells, 24 h after infection, p < 0.05
Method: CRFK cells were seeded in 96-well cell culture plates at a density of 1 × 10^4 cells/well and cultured at 37 °C in 5% CO2 until the cell density was greater than 90%. After the cells were washed twice with PBS, 50 μL of test compound and 50 μL of FIPV were added to each well simultaneously (at the same time, a cell control group with only 100 μL of MM and a viral control group with only 100 μL of FIPV were added). Three replicate wells were used for each group. […] Then, apoptosis was detected according to the instructions of the Annexin V-FITC/PI Apoptosis Detection Kit (MCE, USA). The results were observed using a fluorescence inverted microscope, and the fluorescence intensity was analyzed using ImageJ.

FIPV (BJ-01) [3] = test: Inhibitory effects of compounds on FIPV-infected cells (compound and FIPV added simultaneously, CCK-8); assay type: cell-based, feline infectious peritonitis virus
Method: According to previous methods, CRFK cells were seeded in 96-well cell culture plates at a density of 1 × 10^4 cells/well and cultured at 37 °C in 5% CO2 until the cell density was greater than 90%. After the cells were washed twice with PBS, 50 μL of test compound and 50 μL of FIPV were added to each well simultaneously (at the same time, a cell control group with only 100 μL of MM and a viral control group with only 100 μL of FIPV were added). There were 3 replicate wells for each compound and group. After 72 h of incubation at 37 °C and 5% CO2, the liquid in the plate was discarded, and the cells were washed twice with PBS. The MIR of the compounds to the virus was calculated according to the instructions of the Cell Counting Kit-8. Afterwards, the compounds with MIR > 50% were diluted to 8 concentrations with MM, and the above process was repeated. Then, the EC50 values of the compounds were calculated with GraphPad Prism 10.

CRFK cells = test: Cytotoxicity assay of the compounds (CCK-8); assay type: cell-based, feline; details: cat, 72 h
Method: (§1) CRFK cells were seeded in 96-well cell culture plates at a density of 1 × 10^4 cells/well and incubated at 37 °C with 5% CO2 until the cell density reached more than 90%. Then, the medium was discarded, and the cells were washed twice with PBS. The compound to be tested was diluted in 10 successive gradients with MM at a 2-fold multiplicity (at the same time, there was a cell control group of 100 μL of MM, and 3 replicate wells were set for each concentration and group) and incubated at 37 °C with 5% CO2 for 72 h; then, the liquid in the plate was discarded and washed twice with PBS. Afterwards, the cytopathic ratios (CRs) of the compounds to cells were calculated according to the instructions of the Cell Counting Kit-8 (MCE, NJ, USA), and the CC50s of the compounds and the MNTCs at which the compounds could survive more than 90% of the cells were calculated using GraphPad Prism 10. In subsequent experiments, the final concentrations of the compounds after addition were the MNTCs of the compounds unless otherwise specified.

[4] = Cytotoxicity assay of the compounds (CCK-8); assay type: cell-based, feline; details: cat
Method: as §1

O=C(O)[C@H]1O[C@@H](Oc2cc3oc(-c4ccccc4)cc(=O)c3c(O)c2O)[C@H](O)[C@@H](O)[C@@H]1O [Baicalin]
inhibition rate on FIPV (replication blocking) (FIPV (BJ-01) [1]; baicalin added after 10 h of infection): significantly reduced
inhibition rate on FIPV (replication blocking) (FIPV (BJ-01) [1]; baicalin added within 8 h of FIPV infection of CRFK cells): more than 50%
inhibition rate on FIPV infection (adsorption) (FIPV (BJ-01) [2]): ≤ 50%
fluorescence intensity per unit area of cells (early apoptosis, green fluorescence) (FIPV-infected CRFK cells): significantly lower
EC50 (FIPV (BJ-01) [3]; Alphacoronavirus 1, FIPV in CRFK cells, gradient dilution, 72 h, CCK-8): 20.8 µg/mL (≈ 46.6 µM)
SI (CC50/EC50) (FIPV (BJ-01) [3]; FIPV, CRFK cells): > 3 and 5.5
MNTC (maximum noncytotoxic concentration) (CRFK cells): 31.36 µg/mL
CC50 at 72 h [4]: 114 µg/mL (≈ 257 µM)
